Measurements as given in patent publication US20130281313A1, “PROGNOSTIC AND/OR PREDICTIVE BIOMARKERS AND BIOLOGICAL APPLICATIONS THEREOF” (INSTITUT GUSTAVE ROUSSY, priority 2010, published 2013).

Assays:
[1] = tested on: A549 cells; assay: Genome-wide siRNA screen: residual proliferation (WST-1) of siRNA-transfected cells upon CDDP; format: cell-based, human; settings: 50 μM CDDP for 24 hours
Experimental: High-throughput operations were carried out by means of a Microlab STAR automated workstation (Hamilton, Reno, USA) placed under a class II safety cabinet. In all screening rounds, each siRNA was tested in triplicates that were distributed to three different plates. Prior to cell seeding, transfection complexes were individually prepared in a V-bottomed 96-well deep well plate. In brief, each siRNA (as retrieved from the Human Whole Genome siRNA Set Version 1.0) was dissolved in a total volume of 122.5 μL serum-free phenol-red free DMEM/F12 medium (final concentration=10 nM, conditions for 7 wells). Similarly, an appropriate amount of HiPerFect® transfection reagent (Qiagen) was diluted in serum-free phenol-red free DMEM/F12 medium (0.25 μL per well). […] After additional 24 h, the 3 plates that were not subjected to cell death induction were assessed for both plasma membrane breakdown and residual cell proliferation, while the 3 plates that were treated with cell death-inducing stimuli were monitored for residual proliferation only (see next section). […]
In the second round of screen (4 siRNAs×1,000 transcripts=4,000 siRNAs), the effects of individual siRNAs were analyzed and scored as described above. […]

[2] = tested on: murine Lewis lung carcinoma (LLC) cells in immunocompetent C57BL/6 mice; assay: Tumor graft model: LLC cells in C57BL/6 mice; format: in vivo, mouse; settings: intraperitoneal CDDP with systemic injections of PN
Experimental: C57BL/6 (H-2b) and Swiss Nude mice were obtained from Janvier (Le Genest St. Isle, France) and Charles River, respectively. Animals were maintained in pathogen-free conditions, and all experiments were carried out (upon approval by the local ethical committee) according to the Federation of European Laboratory Animal Science Association (FELASA) guidelines. Mice were used between 6 and 12 weeks of age. During the experiments, animals were subjected to artificial light cycle (12 h lights on-12 h lights off) and allowed food and drink ad libitum.
5×10^5 LLC and A549 cells were subcutaneously xenografted (in 100 μL sterile PBS) in 25-30 immunocompetent (C57BL/6) and immunodeficient (Swiss Nude) mice, respectively. When the surface of tumors reached 25-40 mm^2, n=4-6 mice were assigned to either of 4 different treatment groups: group 1=100 μL intraperitoneal PBS; group 2=5 mg/kg intraperitoneal CDDP in 100 μL PBS; group 3=240 mg/Kg intraperitoneal Orlistat® in 40 μL PBS; group 4=5 mg/kg intraperitoneal CDDP in 100 μL PBS+intraperitoneal Orlistat® in 40 μL PBS. Treatments were administered three times a week (day 1, 3 and 5; day 8=day 1). Tumor size was monitored on the day of treatment by means of a standard calliper and tumor volume was extrapolated as previously described {Streit, 1999}. […] Statistical significance was evaluated by two-way ANOVA.

[3] = tested on: A549 cells; assay: Real-time measurements of cell adherence (impedance); format: cell-based, human; settings: 50 μM CDDP alone or with 5 mM PN
Experimental: 5×10^3 A549 cells were seeded in standard culture conditions on 96-well plates coated with gold microelectrodes (E-plates™, Roche) and let adapt and recover growth for 40 h. Thereafter, cells were treated with 50 μM CDDP alone or in association with 5 mM PN for additional 48 h. Since plating, the adherence of cells to the plate was monitored every 15 min (as a function of plate impedance) by means of an xCELLigence™ Real-Time Cell Analyzer (RTCA, from Roche).
Cell adherence was measured in 3 parallel wells for each experimental condition.
Results are reported as mean cell index (CI) values, which constitute an indication of electrode impedance, ±SEM.

Compound: N.N.[Cl][Pt][Cl] [CDDP, cis-diammineplatinum(II) dichloride]
- cells killed [1]: ~45%

Compound: Cc1ncc(CO)c(CO)c1O [PN, pyridoxine]
- antitumor effects of CDDP-based chemotherapy (tumor growth) [2]: augmented the antitumor effects of CDDP-based chemotherapy in vivo
- CDDP-induced cell death measured as impedance caused by attached, viable cells [3]: exacerbated CDDP-induced cell death
